Measurements reported in PubChem BioAssay (NCI).
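These data come from cells grown in 96-well plates and exposed to compound for 48 hours at five concentrations. The concentration for 50% growth inhibition is given as GI50. At the TGI there is no net growth.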

Key:
Assay in all cases: NCI tumour cell line growth inhibition, 48 h
[1] = tested on: U251 CNS
[2] = tested on: PC-3 prostate
[3] = tested on: M14 melanoma
[4] = tested on: LOX IMVI melanoma
[5] = tested on: K-562 leukemia
[6] = tested on: MALME-3M melanoma
[7] = tested on: COLO 205 colon
[8] = tested on: SF-295 CNS
[9] = tested on: UACC-257 melanoma
[10] = tested on: KM12 colon
[11] = tested on: SK-MEL-5 melanoma
[12] = tested on: HCC-2998 colon
[13] = tested on: CCRF-CEM leukemia
[14] = tested on: A549 NSCLC
[15] = tested on: OVCAR-3 ovarian
[16] = tested on: 786-0 renal
[17] = tested on: OVCAR-4 ovarian
[18] = tested on: BT-549 breast
[19] = tested on: MOLT-4 leukemia
[20] = tested on: NCI/ADR-RES ovarian
[21] = tested on: HOP-62 NSCLC
[22] = tested on: SNB-75 CNS
[23] = tested on: OVCAR-5 ovarian
[24] = tested on: EKVX NSCLC
[25] = tested on: SK-MEL-28 melanoma
[26] = tested on: HS 578T breast
[27] = tested on: A498 renal
[28] = tested on: HCT-15 colon
[29] = tested on: TK-10 renal
[30] = tested on: OVCAR-8 ovarian
[31] = tested on: SN12C renal
[32] = tested on: NCI-H23 lung
[33] = tested on: NCI-H226 lung
[34] = tested on: HL-60(TB) leukemia
[35] = tested on: NCI-H522 lung
[36] = tested on: SK-OV-3 ovarian
[37] = tested on: HT29 colon
[38] = tested on: HOP-92 NSCLC
[39] = tested on: RXF 393 renal
[40] = tested on: MDA-MB-468 breast
[41] = tested on: HCT-116 colon
[42] = tested on: RPMI-8226 leukemia
[43] = tested on: UACC-62 melanoma
[44] = tested on: NCI-H460 lung
[45] = tested on: SF-268 CNS
[46] = tested on: SF-539 CNS
[47] = tested on: SK-MEL-2 melanoma
[48] = tested on: MCF7 breast
[49] = tested on: SW-620 colon
[50] = tested on: MDA-MB-435
[51] = tested on: DU-145 prostate
[52] = tested on: ACHN renal
[53] = tested on: CAKI-1 renal
[54] = tested on: IGROV1 ovarian

`C=C1CC[C@@H]2[C@]3(C)COC(c4cn[nH]c4-c4ccc(Br)cc4)O[C@@H]3CC[C@@]2(C)[C@@H]1C/C=C1/C(=O)OCC1O` (stereo partly drawn) showed a GI50 [1] of 6.83 µM, a TGI [1] of 19.9 µM and a GI50 [2] of 4.08 µM. It also gave a TGI [2] of 30.3 µM, a GI50 [3] of 3.4 µM and a TGI [3] of 16.7 µM. For the same molecule, the GI50 [4] was 1.37 µM, the TGI [4] was 2.72 µM and the GI50 [5] was 2.24 µM. The TGI [5] was 15.4 µM, the GI50 [6] was 3.98 µM and the TGI [6] was 17.7 µM. For the same molecule, the GI50 [7] was 4.45 µM, the TGI [7] was 18.1 µM and the GI50 [8] was 12.1 µM. It also gave a TGI [8] of 25.4 µM, a GI50 [9] of 11.8 µM and a TGI [9] of 27.5 µM. It also gave a GI50 [10] of 7.16 µM, a TGI [10] of 29.2 µM and a GI50 [11] of 10.4 µM. The TGI [11] was 23.4 µM, the GI50 [12] was 9.11 µM and the TGI [12] was 21.4 µM. For the same molecule, the GI50 [13] was 2.81 µM, the TGI [13] was 44.2 µM and the GI50 [14] was 11.1 µM. It also gave a TGI [14] of 26.4 µM, a GI50 [15] of 2.08 µM and a TGI [15] of 4.49 µM. For the same molecule, the GI50 [16] was 5.75 µM, the TGI [16] was 18.8 µM and the GI50 [17] was 5.02 µM. For the same molecule, the TGI [17] was 32.8 µM, the GI50 [18] was 2.88 µM and the TGI [18] was 12.3 µM. The GI50 [19] was 2.86 µM, the TGI [19] was 13.6 µM and the GI50 [20] was 2.2 µM. For the same molecule, the TGI [20] was 6.91 µM, the GI50 [21] was 18.9 µM and the TGI [21] was 37.3 µM. It also gave a GI50 [22] of 7.04 µM, a TGI [22] of 25.7 µM and a GI50 [23] of 10 µM. It also gave a TGI [23] of 23.1 µM, a GI50 [24] of 4.68 µM and a TGI [24] of 17.7 µM. It also gave a GI50 [25] of 2.13 µM, a TGI [25] of 4.95 µM and a GI50 [26] of 17.7 µM. The TGI [26] was > 100 µM, the GI50 [27] was 16.8 µM and the TGI [27] was 30.6 µM. For the same molecule, the GI50 [28] was 1.97 µM, the TGI [28] was 5.3 µM and the GI50 [29] was 18.4 µM. It also gave a TGI [29] of 33.4 µM, a GI50 [30] of 3.24 µM and a TGI [30] of 61.9 µM. The GI50 [31] was 7.51 µM, the TGI [31] was 21.5 µM and the GI50 [32] was 10.5 µM. For the same molecule, the TGI [32] was 23.1 µM, the GI50 [33] was 1.93 µM and the TGI [33] was 4.32 µM. For the same molecule, the GI50 [34] was 2.3 µM, the TGI [34] was 17.6 µM and the GI50 [35] was 2.08 µM. For the same molecule, the TGI [35] was 5.75 µM, the GI50 [36] was 16.8 µM and the TGI [36] was 32.2 µM. It also gave a GI50 [37] of 2.8 µM, a TGI [37] of 10.5 µM and a GI50 [38] of 5.08 µM. For the same molecule, the TGI [38] was 22.7 µM, the GI50 [39] was 1.9 µM and the TGI [39] was 4.42 µM. For the same molecule, the GI50 [40] was 2.47 µM, the TGI [40] was 9.41 µM and the GI50 [41] was 1.94 µM. For the same molecule, the TGI [41] was 5.19 µM, the GI50 [42] was 2.56 µM and the TGI [42] was > 100 µM. For the same molecule, the GI50 [43] was 3.44 µM, the TGI [43] was 15.8 µM and the GI50 [44] was 12.6 µM. The TGI [44] was 29.7 µM, the GI50 [45] was 16.5 µM and the TGI [45] was 42.3 µM. It also gave a GI50 [46] of 2.2 µM, a TGI [46] of 5.67 µM and a GI50 [47] of 5.85 µM. The TGI [47] was 20.8 µM, the GI50 [48] was 2.13 µM and the TGI [48] was 10.4 µM. It also gave a GI50 [49] of 2.33 µM, a TGI [49] of 6.36 µM and a GI50 [50] of 3.24 µM. It also gave a TGI [50] of 15.3 µM, a GI50 [51] of 8.24 µM and a TGI [51] of 23.6 µM. For the same molecule, the GI50 [52] was 2.16 µM, the TGI [52] was 6.16 µM and the GI50 [53] was 8.18 µM. For the same molecule, the TGI [53] was 22 µM, the GI50 [54] was 13.8 µM and the TGI [54] was 30.9 µM.
